# Source: patent US8927520B2, “Antibacterial compounds” (Institut Pasteur, priority 2010, dated 2015)
# Key:
# [1] = test system: Staphylococcus aureus S25 strain; experiment: Bactericidal activity assay; assay type: cell-based; details: S. aureus, overnight at 37° C., inhibitor 1 to 100 μg/mL, CFU count
# Protocol: 100 μL suspensions of S. aureus corresponding to 2.10^3 bacteria were incubated overnight at 37° C. with increasing concentrations of inhibitor (1 to 100 μg/mL). Bacterial killing (percent) was determined as the ratio of colony forming units after incubation with inhibitor to that of colony forming units after incubation with buffer alone. Data are mean values ±SD from three separate experiments. * indicates a statistical significance in Student's t-test of p<0.05.
# The Staphylococcus aureus S25 strain, a human clinical isolate, was grown overnight in brain heart infusion (BHI) broth at 200 rpm and 37° C. Overnight cultures were diluted to OD600nm=0.05 in BHI-phosphate buffer saline (25% v/v). Bacteria were grown at 200 rpm and 37° C. until cultures reached OD600nm=0.5. Bacterial suspensions were adjusted to a concentration of 2.10^5 bacteriamL. In a microtiter plate, 2.10^3 bacteria were incubated overnight at 200 rpm and 37° C. with increasing concentrations of NADK inhibitor in 0.1 mL BHI-phosphate buffer saline (25% v/v) per well. To quantify the bactericidal activity, each bacterial suspension was serially diluted in BHI and plated on BHI agar plates in duplicates. Plates were incubated at 37° C. for 24 h to 48 h and the number of colony forming units was determined.
# [2] = target: LmNADK1 (NADK from Lysteria monocytogenes) (Listeria monocytogenes serovar 1/2a (strain ATCC BAA-679 / EGD-e), UniProt Q8Y8D7); experiment: NAD kinase activity assay (coupled Glucose-6-phosphate dehydrogenase, absorbance at 340 nm); assay type: biochemical; details: for Ki: Dixon plots, 4 mM ATP, NAD 0.2, 0.5 and 1 mM, read-out: Ki, NADK from Lm; for Inhibition of LmNADK1 (in words): purified enzyme
# Protocol: (§1) Expression, purification and activity assay. His-tagged LmNADK1 wild-type and His-tagged SaNADK were expressed and purified on cobalt-based IMAC resins (Clontech) as previously published^13. The NAD kinase activity was determined by measuring the absorbance at 340 nm to follow the formation of reduced NADP produced by a coupling enzyme (Glucose-6-phosphate dehydrogenase from yeast). Coupling enzyme and its substrate were purchased from Sigma-Aldrich. The assay was performed in a 0.5 mL sample of (50 mM Tris-HCl pH 7.4, 10 mM MgCl2, 1 mM Glucose-6-phosphate, 2 mM sodium citrate) containing Glucose-6-phosphate dehydrogenase and NADK at 30° C. using a spectrophotometer Eppendorf ECOM 6122.
# (§2) For inhibitor assays, IC50 was determined, in the presence of 1 mM NAD and 4 mM ATP (for LmNADK1) or 2 mM ATP (for SaNADK). Dixon plots were used to determine KI in the presence of 4 mM ATP (for LmNADK11) or 2 mM ATP (for Sa NADK) and three NAD concentrations (0.2, 0.5 and 1 mM). It was also checked that the inhibitors had no effect on the coupling enzyme activity.
# [3] = target: SaNADK (NADK from Staphylococcus aureus) (Staphylococcus aureus (strain COL), UniProt Q5HH78); experiment: as above; assay type: biochemical; details: Dixon plots; 2 mM ATP; NAD 0.2, 0.5 and 1 mM; read-out: Ki, NADK from Sa
# Protocol: as §1, §2
# [4] = test system: Staphylococcus aureus S25 strain; details: reference value for comparison; cited from earlier work
# [5] = target: NADK from Listeria monocytogenes (Listeria monocytogenes serovar 1/2a (strain ATCC BAA-679 / EGD-e), UniProt Q8Y8D7); details: literature value; read-out: K (affinity), inhibition of NADK; cited from earlier work
Molecule,Concentration giving significant bactericidal activity [1] [µg/mL],Ki [2] [µM],Inhibition of LmNADK1 (in words) [2],Ki [3] [µM],Efficiency of reference compound (bactericidal concentration) [4] [µg/mL],Ki [5] [µM]
5′-Amino-5′-deoxyadenosin-8-yl-thio-N-[(5′-amino-5′-deoxy-adenosine)methyl]acetamide [Inhibitor 17],1,30,micromolar range,50,,
8-[3-(Adenosin-5′-yl)methoxyprop-1-yn-1-yl]adenosine [Inhibitor 22],1,20,micromolar range,15,,
"Nc1ncnc2c1ncn2[C@@H]1O[C@H](CNCC#Cc2nc3c(N)ncnc3n2[C@@H]2O[C@H](CO)[C@@H](O)[C@H]2O)[C@@H](O)[C@H]1O [Inhibitor 19, 8-[3-N-(5′-Deoxyadenosin-5′-yl)aminoprop-1-yn-1-yl]adenosine]",10,10,micromolar range,5,,
CN[C@H](CC(C)C)C(=O)N[C@H]1C(=O)N[C@@H](CC(N)=O)C(=O)N[C@H]2C(=O)N[C@H]3C(=O)N[C@H](C(=O)N[C@H](C(=O)O)c4cc(O)cc(O)c4-c4cc3ccc4O)[C@H](O)c3ccc(c(Cl)c3)Oc3cc2cc(c3O[C@@H]2O[C@H](CO)[C@@H](O)[C@H](O)[C@H]2O[C@H]2C[C@](C)(N)[C@H](O)[C@H](C)O2)Oc2ccc(cc2Cl)[C@H]1O [vancomycin],,,,,8,
Di-5′-thioadenosine [DTA],,,,,,~20
